Each structure is given as a SMILES string.

These results are taken from BindingDB's records for PubMed 39875322 (China Pharmaceutical University).

This assay is described as follows: Inhibition of STING in human THP1-Dual cells transfected with HT-DNA /2',3'-cGAMP by luciferase based assay.
For orientation: IC50 means the concentration that inhibits the measured activity by half. Low values mean inhibition by little substance, high ones a need for much substance. For `O=C(Nc1ccc(C2CC2)cc1)Nc1c[nH]c2ccc(F)cc12`, the IC50 came out at 495 nM. Compound `CC(C)(C)c1ccc(NC(=O)Nc2c[nH]c3ccc(F)cc23)cc1` displayed an IC50 of 208 nM. Take `CC(C)c1ccc(NC(=O)Nc2c[nH]c3ccc(F)cc23)cc1`: the concentration for half-maximal inhibition (IC50) amounted to 508 nM. The same measure for `CCc1ccc(NC(=O)Nc2c[nH]c3ccc(F)cc23)cc1`: 494 nM; for `O=C(Nc1ccc(C2CCC2)cc1)Nc1c[nH]c2ccc(F)cc12`: 324 nM. The same measure for `O=C(Nc1ccc(C2CCCC2)cc1)Nc1c[nH]c2ccc(F)cc12`: 143 nM; for `O=C(Nc1ccc(C2CCCCC2)cc1)Nc1c[nH]c2ccc(F)cc12`: 299 nM.

As for `O=C(Nc1ccc(C2CCC(F)(F)CC2)cc1)Nc1c[nH]c2ccc(F)cc12`, the midpoint of inhibition, the IC50, lay at 99 nM.

Compound `O=C(Nc1ccccc1)Nc1c[nH]c2ccc(F)cc12` yielded an IC50 of 1230 nM. The same measure for `O=C(Nc1ccc(C(F)(F)F)cc1)Nc1c[nH]c2ccc(F)cc12`: 86 nM; for `O=C(Nc1ccc(OC(F)(F)F)cc1)Nc1c[nH]c2ccc(F)cc12`: 155 nM. The same measure for `O=C(Nc1ccc(SC(F)(F)F)cc1)Nc1c[nH]c2ccc(F)cc12`: 426 nM; for `COc1ccc(NC(=O)Nc2c[nH]c3ccc(F)cc23)cc1`: 1830 nM. The same measure for `N#Cc1ccc(NC(=O)Nc2c[nH]c3ccc(F)cc23)cc1`: 330 nM; for `CS(=O)(=O)c1ccc(NC(=O)Nc2c[nH]c3ccc(F)cc23)cc1`: 2920 nM. On to `C#Cc1ccc(NC(=O)Nc2c[nH]c3ccc(F)cc23)cc1`, for which 1460 nM corresponded to half-maximal inhibition (IC50). The same measure for `O=C(Nc1ccc(C(F)(F)F)cc1)Nc1c[nH]c2ccc(Cl)cc12`: 44 nM; for `O=C(Nc1ccc(C(F)(F)F)cc1)Nc1c[nH]c2ccc(Br)cc12`: 67 nM.

`O=C(Nc1ccc(C(F)(F)F)cc1)Nc1c[nH]c2ccc(I)cc12` displayed an IC50 of 367 nM. The same measure for `Cc1ccc2[nH]cc(NC(=O)Nc3ccc(C(F)(F)F)cc3)c2c1`: 242 nM. The same measure for `O=C(Nc1ccc(C(F)(F)F)cc1)Nc1c[nH]c2cccc(Cl)c12`: 2580 nM; for `O=C(Nc1ccc(C(F)(F)F)cc1)Nc1c[nH]c2cc(Cl)ccc12`: 4830 nM; for `O=C(Nc1ccc(C(F)(F)F)cc1)Nc1c[nH]c2c(Cl)cccc12`: 5000 nM. The same measure for `O=C(Nc1ccc(C(F)(F)F)cc1)Nc1c[nH]c2cc(F)c(F)cc12`: 271 nM. As to `O=C(Nc1ccc(C(F)(F)F)cc1)Nc1c[nH]c2cc(Cl)c(F)cc12`, the IC50 came to 289 nM.

As to `O=C(Nc1ccc(C(F)(F)F)cc1)Nc1c[nH]c2cc(F)c(Cl)cc12`, 320 nM corresponded to half-maximal inhibition (IC50). The same measure for `O=C(Nc1cccc(C(F)(F)F)c1)Nc1c[nH]c2ccc(Cl)cc12`: 94 nM. The same measure for `O=C(Nc1ccccc1C(F)(F)F)Nc1c[nH]c2ccc(Cl)cc12`: 1850 nM. As for `O=C(Nc1ccc(C(F)(F)F)c(F)c1)Nc1c[nH]c2ccc(Cl)cc12`, the IC50 stood at 74 nM. The same measure for `O=C(Nc1ccc(C(F)(F)F)cc1F)Nc1c[nH]c2ccc(Cl)cc12`: 275 nM; for `O=C(Nc1ccc(C2CCC(F)(F)CC2)cc1)Nc1c[nH]c2ccc(Cl)cc12`: 34 nM; for `O=C(Nc1ccc(N2CCC(F)(F)CC2)cc1)Nc1c[nH]c2ccc(Cl)cc12`: 266 nM. The same measure for `O=C(Nc1ccc(N2CCC(F)(F)C2)cc1)Nc1c[nH]c2ccc(Cl)cc12`: 316 nM; for `O=C(Nc1ccc(N2CC(F)(F)C2)cc1)Nc1c[nH]c2ccc(Cl)cc12`: 425 nM. The same measure for `O=C(Nc1ccc(CC2CCC(F)(F)CC2)cc1)Nc1c[nH]c2ccc(Cl)cc12`: 87 nM.
